Experimental data reported in patent EP0808325B1, “[…] […] SERIES FOR […] GABA RECEPTOR” (priority 1994, dated 1996).

What was measured:
[1] = target: GR complex; experiment: modulation of [35S]TBPS binding in rat cerebral cortex P2 homogenate; set-up: species or system Sprague-Dawley rats; IMAX: unit not given here; conditions: for IC50: concentration of compounds to inhibit 50% of control [35S]TBPS binding, 2 nM [35S]TBPS, 25°C, 90 minutes, no unit printed; for IMAX: maximum inhibition of [35S]TBPS binding, I* = Inactive
Description: We performed several experiments to determine the nature of the modulation of [^35S]TBPS as affected by the compounds of the invention.
These procedures were performed as follows:
Brains from male Sprague-Dawley rats were removed immediately following sacrifice and the cerebral cortices dissected over ice. […] Briefly, the cortices were gently homogenized in 0.32 M sucrose followed by centrifugation at 1000 x g for 10 minutes. The supernatant was collected and centrifuged at 9000 x g for 20 minutes. The resultant P2 pellet was suspended as a 10% (original wet weight/volume) suspension in 50 mM Na/K phosphate buffer (pH 7.4) 200 mM NaCI to form the homogenate.
One hundred microliter […] aliquots of the P2 homogenate (0.5 milligrams (mg) protein) were incubated with 2 nanomolar (nM) [^35S]TBPS (70-110 curies/millimole;, New England Nuclear, Boston, MA) in the presence or absence of the naturally occurring steroids or their synthetic derivatives to be tested. The tested compounds were dissolved in dimethylsulfoxide (Baker Chem. Co., Phillipsbury, NJ) and added to the incubation mixture in 5 µL aliquots. The incubation mixture was brought to a final volume of 1 mL with buffer. Nonspecific binding was defined as binding in the presence of […]. The effect and specificity of GABA (Sigma Chem. Co., St. Louis, MO) was evaluated by performing all assays in the presence of GABA plus (+)bicuculline (Sigma Chem. Co.). Incubations maintained at 25°C for 90 minutes (steady state conditions) were terminated by rapid filtration through glass fiber filters (No. 32, Schleicher and Schuell, Keene, NH). Filter-bound radioactivity was quantitated by liquid scintillation spectrophotometry.
Various compounds were screened to determine their potential as modulators of [^35S]TBPS binding in vitro. These assays were performed in accordance with the above discussed procedures. […] It is an indication of a compound's in vitro potency. Maximum inhibition is an indication of a compound's in vitro efficacy.

[2] = test system: metrazol induced convulsions; experiment: animal or person; type: in vivo, mice; conditions: IP, 10 mg/kg
Description: Experiments were also performed to determine the physiological relevance of neuroactive steroid and GABA receptor interactions by assessing the ability of the compounds of and used in the invention to prevent metrazol induced convulsions in mice. […] The time to onset of myoclonus (presence of forelimb clonic activity) induced by metrazol was determined by observing each mouse for a period of 30 minutes. […]
The anticonvulsant tests are similar to that described above. […] The number of animals with tonic and/or clonic convulsions was recorded. In the maximal electroshock test, 50 mA of current at 60 Hz was delivered through corneal electrodes for 200 msec to induce tonic seizure. The ability of compounds to abolish the tonic component was defined as the endpoint. General CNS depression potential was determined by a rotorod test 10 minutes after the injection of compounds where the number of mice staying on a rotating (6 rpm) rod for 1 minute in one of the three trials was determined. […]

[3] = test system: mice; experiment: elevated plus-maze; type: in vivo, N.I.H. Swiss-Webster mice; conditions: IP
Excerpt: The theoretical basis for the elevated plus-maze test is similar to that of the light/dark transition test. As described by Pellow et al., J. Neurosci. Meth 14:149-167 (1985), the elevated plus-maze apparatus is designed to utilize the mice's natural aversion to open spaces. The apparatus consists of two open-arms and two enclosed-arms. The elevated plus-maze test allows for two measures of anxiety, the number of entries into the open-arms and the time spent on the open-arms, both expressed as a percentage of the total number of entries and time spent in/on both the open-arms and enclosed-arms.
Male N.I.H. Swiss-Webster mice (Harlan, Indianapolis, IN) weighing 15-20 g were housed four per cage in polyethylene cages with sawdust bedding. The colony room was environmentally controlled (22°C) with a 12 hr light/dark cycle (0600-1800 hr). Food and water were available ad libitum, except during testing. The experiments were run from 0700-1500 hr and groups were counterbalanced for time of day effects. Mice were only administered drug or vehicle once.
The method used was previously described (Lister, Psychopharmacol. 92:180-185 (1987)). The apparatus included two open arms perpendicular to two enclosed arms elevated 50 cm from the floor. Each arm was 50 cm long and the walls of the enclosed arms were 40 cm tall. The maze was made completely of black plexiglass. Incandescent 200 W light bulbs were above each of the open arms to produce a strong contrast between the open arms and the enclosed arms.
Ten minutes after an injection, the N.I.H. Swiss-Webster mice were placed in the center of the plus-maze facing an open arm. During the 5 min test period, the number of entries onto the open arms and the enclosed arms, and the time spent in the open arms and enclosed arms were measured. All four paws had to be within an arm for the dependent variable to be measured. Therefore, the time spent in the center of the maze is not counted, so the total time spent in the open arms and the enclosed arms may not equal 5 min. […]

[4] = test system: rats; experiment: Geller-Seifter conflict test; type: in vivo, Sprague-Dawley rats
Excerpt: This animal model of human anxiety utilizes a conditioned state of conflict in rats to ascertain the anxiolytic properties of drugs. Rats are conditioned to bar press for positive reinforcement under two schedules of behavior (Geller and Seifter, Psychopharmacologia 1:482-492 (1960)). The first includes bar pressing under a […] schedule without punishment. The second component is a fixed ratio schedule with each bar press resulting in a positive reinforcement and a punishment. The punished component produces a state of conflict within the animal. […] An anxiolytic response would increase the punished responding without affecting the unpunished responding.
Male albino Sprague-Dawley rats (Charles River Labs, Wilmington, MA) weighing 250-300 g were used for conflict experiments and were kept on a restricted diet of Purina Lab Chow food pellets with water available at all times to maintain body weight at 85% of their free-feeding young adult levels. Rats were housed individually under a 12-hour light-dark cycle with lights on from 0700-1900.
The anti-anxiety (punishment-lessening) and response depressant effects of […] and […] were measured in rats by the conflict test of Geller and Seifter (1960). In this 63-min test, hungry rats perform a lever-press response to obtain a sweetened milk reward. The reinforcement schedule consists of punishment and nonpunishment components, alternating approximately every 15 min. Rats were trained in test chambers (Coulbourn instruments) with a lever mounted in one wall, a small dipper that delivered the 0.1-mL milk reward (1 part Eagle condensed : milk 2 parts water), and a metal grid floor through which the foot-shock punishment was administered. A DEC PDP 11/73 minicomputer running SKED (State Systems) was used for programming and recording.
Rates initially learned to respond on a continuous reinforcement schedule and progressed rapidly to 30-sec, 1-min, and 2-min variable interval (VI) schedules. On the continuous reinforcement schedule, rats received milk reward following every lever press; on the VI schedules, milk rewards were available at infrequent and variable intervals, eventually at an average of once every 2 min. Four 3-min "conflict" periods were then introduced on the unpunished VI baseline; the first started after 3 min of VI performance and the others were alternated between 12-min periods of VI responding. During conflict periods, which were signalled by the presentation of a light and a tone, the continuous reinforcement schedule was again in force and each lever press delivered both a milk reward and a brief ([…]) foot-shock punishment. Shock intensity was 0.2 mA initially, and.was increased daily in increments of 0.02 mA in order to gradually suppress lever pressing to 5 responses or less per conflict period. This training took 4-6 weeks, after which stable low rates of response were observed during conflict periods and stable high rates in the nonpunishment periods. Drug-induced increases in the rate of punished responses were taken as an index of antianxiety activity, while decreases in the rate of unpunished responses were taken as an index of response depression or sedation.

[5] = 50% hpbcd, 10 minutes prior to metrazol (85 mg/kg)

| SMILES | IC50 [1] [nM] | IMAX [1] | % Protected [2, 5] [%] | % Control ([3]; 50% hpbcd, 10 mg/kg) [%] | also measured |
| --- | --- | --- | --- | --- | --- |
| CC(=O)[C@H]1CC[C@H]2[C@@H]3CC[C@H]4C[C@@](O)(CF)CC[C@]4(C)[C@H]3CC[C@]12C [3β-Fluoromethyl-3α-hydroxy-5α-pregnan-20-one] | 200 | 77 | 14.3 | – | % Control ([3]; 50% hpbcd, 20 mg/kg): 150.7%; Geller/Seifter (% of control) ([4]; sc, 50% hpbcd, 8 mg/kg): 1005 % of control |
| CC(=O)[C@H]1CC[C@H]2[C@@H]3CC[C@H]4C[C@](C)(O)CC[C@]4(C)[C@H]3CC[C@]12C [3α-hydroxy-3β-methyl-5α-pregnan-20-one] | 62 | 97 | 100 | – | % Control ([3]; 50% hpbcd, 5 mg/kg): 165.6%; Geller/Seifter (% of control) ([4]; sc, 50% hpbcd, 4 mg/kg): 1384.6 % of control |
| CC=C1CCC2C3CCC4CC(O)(C(F)(F)F)CCC4C3CCC12C (stereo not drawn) [3α-Hydroxy-3β-trifluoromethyl-5β-19-norpregn-17(20)(Z)-ene] | – | – | 25 | – | Geller/Seifter (% of control) ([4]; sc, 50% hpbcd, 16 mg/kg): 1130.3 % of control |
| C#C[C@@]1(O)CC[C@@]2(C)[C@H](CC[C@@H]3[C@@H]2CC[C@]2(C)[C@@H](C(=O)COC(=O)CCC(=O)O)CC[C@@H]32)C1 [3α,21-dihydroxy-3β-ethynyl-5β-pregnan-20-one 21 hemisuccinat] [3α,21-dihydroxy-3β-ethynyl-5β-pregnan-20-one 21 hemisuccinate] | – | 82 | – | 164.2 | % Protected ([2]; water): 50%; Geller/Seifter (% of control) ([4]; po, water, 16 mg/kg): 1350.0 % of control |
| CC1([C@H]2CC[C@H]3[C@@H]4CC[C@H]5C[C@](C)(O)CC[C@]5(C)[C@H]4CC[C@]23C)NC(C(=O)O)CS1 (stereo partly drawn) [3α-Hydroxy-3β-methyl-5α-pregnane-20-spiro-2'-(1'3'-thiazolidine-4'-carboxylic acid)] | – | – | – | – | Geller/Seifter (% of control) ([4]; sc, 50% hpbcd, 16 mg/kg): 900.0 % of control |
| CC(=O)OCC(=O)[C@H]1CC[C@H]2[C@@H]3CC[C@@H]4C[C@@](O)(C(F)(F)F)CC[C@]4(C)[C@H]3CC[C@]12C [3α,21-Dihydroxy-3β-trifluoromethyl-5β-pregnan-20-one, 21-acetate] | 370 | 88 | 62.5 | – | % Control ([3]; 50% hpbcd, 5 mg/kg): 143.3%; Geller/Seifter (% of control) ([4]; sc, 50% hpbcd, 8 mg/kg): 882.8 % of control |
| CC(=O)[C@H]1CC[C@H]2[C@@H]3CC[C@@H]4C[C@@](O)(C(F)(F)F)CC[C@@H]4[C@H]3CC[C@]12C [3α-Hydroxy-3β-trifluoromethyl-5β-19-norpregnan-20-one] | 76 | 100 | 100 | 173.8 | Geller/Seifter (% of control) ([4]; sc, 50% hpbcd, 4 mg/kg): 1073.1 % of control |
| CC(=O)[C@H]1CC[C@H]2[C@@H]3CC[C@@H]4C[C@@](O)(C(F)(F)F)CC[C@]4(C)[C@H]3C=C[C@]12C [3α-Hydroxy-3β-trifluoromethyl-5β-pregn-11-en-20-one] | 203 | 99 | – | – | Geller/Seifter (% of control) ([4]; sc, 50% hpbcd, 4 mg/kg): 508.3 % of control |
| C=C[C@@]1(O)CC[C@@]2(C)[C@H](CC[C@@H]3[C@@H]2CC[C@]2(C)[C@@H](C(C)=O)CC[C@@H]32)C1 [3β-ethenyl-3α-hydroxy-5β-pregnan-20-one] | 46 | 100 | 87.5 | 151 | – |
| CC12CCC(O)(C(F)(F)F)CC1CCC1C2CCC2(C)C(C(=O)COC(=O)C=CC(=O)[O-])CCC12.[Na+] (stereo not drawn) [3α,21-dihydroxy-3β-trifluoromethyl-5β-pregnan-20-one 21 hemifumarate sodium salt] | 546 | 102 | – | – | % Protected ([2]; water): 50%; % Control ([3]; water, dose column prints 50% hpbcd): 126% |
| C#C[C@@]1(O)CC[C@H]2[C@H](CC[C@@H]3[C@@H]2CC[C@]2(C)[C@@H](C(C)=O)CC[C@@H]32)C1 [3β-ethynyl-3α-hydroxy-19-nor-5β-pregnan-20-one] | 44 | 93 | 87.5 | 172 | – |
| CC(=O)[C@H]1CC[C@H]2[C@@H]3CC[C@H]4C[C@@](O)(C(F)(F)F)CC[C@@H]4[C@H]3CC[C@]12C [3β-Trifluoromethyl-3α-hydroxy-5α-19-norpregnan-20-one] | 251 | 40 | 25 | 161 | – |
| CCC(O)C1CCC2C3CCC4CC(C)(O)CCC4(C)C3CCC12C (stereo not drawn) [3α,20α-Dihydroxy-3β,21-dimethyl-5α-pregnane] | 507 | 48 | – | – | % Protected ([2]; dmso): 0%; % Control ([3]; dmso, 10 mg/kg): 73% |
